Assay [1] deals with HIV-1 laboratory strain, NL4-3. In words: MT-4 cytoprotection assay. The class given is cell-based. In short, it runs like this: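 MT-4 cells mock- or batch-infected with NL4-3 (MOI 0.0005) for 2 h, washed, then cultured 4 days with increasing compound concentrations. Viability read by WST-1 tetrazolium reduction: cytoprotection in infected cells, toxicity in mock-infected cells.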

In a further assay the test system is HIV-1NL4-3. Description: P4-MAGI assay. The class given is cell-based. In short, it runs like this:
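HeLa-derived CD4+ P4 cells carrying an LTR-driven lacZ were infected with HIV-1NL4-3 at MOI 1 with DEAE-Dextran, then compound added in increasing concentrations right after virus; infection reported as Tat-induced β-galactosidase. TC50 measured by WST-1 in mock-infected cells.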

Where [2] appears, read: Human immunodeficiency virus 1, NL43, MT4, 96 h, MT-4 cells, four days incubation, WST-1 readout, read-out: MT4 EC50.
Setting [3] is: Human immunodeficiency virus 1, 24 h, P4 cells, 24 hour incubation, β-galactosidase expression, read-out: P4-MAGI IC50.
[4] abbreviates: Human immunodeficiency virus 1, NL43, less than about 100 nm, read-out: MT-4 assay EC50 (concentration of compound that reduces the virus induced cytopathic effect by 50%).
The mark [5] stands for this setting: Human immunodeficiency virus 1, text statement, less than about 100 nm, read-out: P4-MAGI assay IC50.

Like-named read-outs stand apart in the source and are kept apart here.

As usually defined, the IC50 is the point on the concentration scale where inhibition reaches its midpoint.

Take `C=C(C)[C@@H]1CC[C@]2(C(=O)NCCc3cccc(C(=O)NCC4CCC(C(=O)O)CC4)c3)CC[C@]3(C)C(CCC4[C@@]5(C)CC[C@H](O)C(C)(C)C5CC[C@]43C)C12` (stereo partly shown) [Example 211]: in assay [1] (setting [2]), the EC50 turned out to be 19 nM. For the same molecule, in the assay with HIV-1NL4-3 (setting [3]), the IC50 was 11.2 nM.
Taken in the same sequence, the figures for `C=C(C)[C@@H]1CC[C@]2(C(=O)NCCc3cccc(C(=O)NCc4cccnc4C(=O)O)c3)CC[C@]3(C)C(CCC4[C@@]5(C)CC[C@H](O)C(C)(C)C5CC[C@]43C)C12` (stereo partly shown) [Example 230] were 300 nM and 56 nM.
`C=C(C)[C@@H]1CC[C@]2(C(=O)NCc3cccc(C(=O)NCCNC(C)=O)c3)CC[C@]3(C)C(CCC4[C@@]5(C)CC[C@H](O)C(C)(C)C5CC[C@]43C)C12` (stereo partly shown) [Example 4]: the EC50 in assay [1] (setting [2]) is 2300 nM. For the same molecule, in the assay on HIV-1NL4-3 (setting [3]), the IC50 came out at 155 nM.
For `C=C(C)[C@@H]1CC[C@]2(C(=O)NCCc3cccc(C(=O)NCc4ccc(C(=O)NCCN5CCNCC5)cc4)c3)CC[C@]3(C)C(CCC4[C@@]5(C)CC[C@H](O)C(C)(C)C5CC[C@]43C)C12` (stereo partly shown) [Example 192] the same measures were 7 nM and 7 nM.
For `C=C(C)[C@@H]1CC[C@]2(C(=O)NCCc3ccc(C)c(C(=O)NCc4ccc(C(=O)O)cn4)c3)CC[C@]3(C)C(CCC4[C@@]5(C)CC[C@H](O)C(C)(C)C5CC[C@]43C)C12` (stereo partly shown) [Example 273] the same measures were 1860 nM and 127 nM.
For `C=C(C)[C@@H]1CC[C@]2(C(=O)NCCc3cccc(C(=O)N[C@@H](C)c4cccc[n+]4[O-])c3)CC[C@]3(C)C(CCC4[C@@]5(C)CC[C@H](O)C(C)(C)C5CC[C@]43C)C12` (stereo partly shown) [Example 275] the same measures were 1000 nM and 180 nM.
As to `C=C(C)[C@@H]1CC[C@]2(C(=O)NCc3cccc(C(=O)NCc4ccc(OCCCn5ccnc5)c(C(=O)OC)c4)c3)CC[C@]3(C)C(CCC4[C@@]5(C)CC[C@H](O)C(C)(C)C5CC[C@]43C)C12` (stereo partly shown) [Example 121], the EC50 in assay [1] (setting [2]) was found to be 17 nM. Also, the IC50 in the assay with HIV-1NL4-3 (setting [3]) came out at 21.3 nM.
For `C=C(C)[C@@H]1CC[C@]2(C(=O)NCCc3cccc(C(=O)NCc4nc(C(=O)O)co4)c3)CC[C@]3(C)C(CCC4[C@@]5(C)CC[C@H](O)C(C)(C)C5CC[C@]43C)C12` (stereo partly shown) [Example 153] the same measures were 14 nM and 44.7 nM.
Taken in the same sequence, the figures for `C=C(C)[C@@H]1CC[C@]2(C(=O)NCCc3cccc(C(=O)NCc4ccc(C(=O)N[C@@H](C(=O)O)[C@H](C)N5CCN(C)CC5)cc4)c3)CC[C@]3(C)C(CCC4[C@@]5(C)CC[C@H](O)C(C)(C)C5CC[C@]43C)C12` (stereo partly shown) [Example 177] were 92 nM and 8 nM.
For the molecule `C=C(C)[C@@H]1CC[C@]2(C(=O)NCc3cccc(C(=O)NCc4cccc(C(=O)O)c4F)c3)CC[C@]3(C)C(CCC4[C@@]5(C)CC[C@H](O)C(C)(C)C5CC[C@]43C)C12` (stereo partly shown) [Example 41], the EC50 in assay [1] (setting [2]) was 1.9 nM; in assay [1] (setting [4]), under 100 nM. For the same molecule, the figures for the IC50 in the assay with HIV-1NL4-3 (setting [3]) and in the assay on HIV-1NL4-3 (setting [5]) were 36.7 nM and under 100 nM, respectively.
In the case of `C=C(C)[C@@H]1CC[C@]2(C(=O)NCCc3cccc(C(=O)NCc4ccc(C(=O)N[C@H](CCC(=O)OC)C(=O)OC)cn4)c3)CC[C@]3(C)C(CCC4[C@@]5(C)CC[C@H](O)C(C)(C)C5CC[C@]43C)C12` (stereo partly shown) [Example 223], in assay [1] (setting [2]), the EC50 is 21 nM. In the assay on HIV-1NL4-3 (setting [3]), the IC50 was determined as 21.7 nM.
For `C=C(C)[C@@H]1CC[C@]2(C(=O)NCCc3cccc(C(=O)NCc4ccccc4)c3)CC[C@]3(C)C(CCC4[C@@]5(C)CC[C@H](O)C(C)(C)C5CC[C@]43C)C12` (stereo partly shown) [Example 199] the same measures were 297 nM and 53.2 nM.
On to `C=C(C)[C@@H]1CC[C@]2(C(=O)NCCc3cccc(C(=O)NCc4ccc(C(=O)NC(Cc5c[nH]cn5)C(=O)O)cc4)c3)CC[C@]3(C)C(CCC4[C@@]5(C)CC[C@H](O)C(C)(C)C5CC[C@]43C)C12` (stereo partly shown) [Example 184], for which the EC50 in assay [1] (setting [2]) stood at 830 nM. The IC50 in the assay on HIV-1NL4-3 (setting [3]) came out at 104 nM.
As to `C=C(C)[C@@H]1CC[C@]2(C(=O)NCCc3cccc(C(=O)NCc4ccc(C(=O)O)cc4F)c3)CC[C@]3(C)C(CCC4[C@@]5(C)CC[C@H](O)C(C)(C)C5CC[C@]43C)C12` (stereo partly shown) [Example 69], in assay [1] (setting [2]), the EC50 was determined as 670 nM. Also, the half-inhibitory concentration (IC50) with HIV-1NL4-3 (setting [3]) was 11 nM; in the assay with HIV-1NL4-3 (setting [5]) it was under 100 nM.
For `C=C(C)[C@@H]1CC[C@]2(C(=O)NCCc3cccc(C(=O)NCc4cccc(C(=O)O)c4F)c3)CC[C@]3(C)C(CCC4[C@@]5(C)CC[C@H](O)C(C)(C)C5CC[C@]43C)C12` (stereo partly shown) [Example 73], the EC50 in assay [1] (setting [2]) is 1.5 nM; in assay [1] (setting [4]), under 100 nM. Further, the IC50 in the assay with HIV-1NL4-3 (setting [3]) is 16.2 nM; in the assay on HIV-1NL4-3 (setting [5]), under 100 nM.
Regarding `CC(O)(CN1CCCC1)[C@@H]1CC[C@]2(C(=O)NCCc3cccc(C(=O)NCc4ccc(C(=O)O)cn4)c3)CC[C@]3(C)C(CCC4[C@@]5(C)CC[C@H](O)C(C)(C)C5CC[C@]43C)C12` (stereo partly shown) [Example 270], the EC50 in assay [1] (setting [2]) amounted to 441 nM. Besides, the IC50 in the assay on HIV-1NL4-3 (setting [3]) came to 100 nM.
As to `C=C(C)[C@@H]1CC[C@]2(C(=O)NCCc3cccc(C(=O)NCc4cccnc4C(=O)OC)c3)CC[C@]3(C)C(CCC4[C@@]5(C)CC[C@H](O)C(C)(C)C5CC[C@]43C)C12` (stereo partly shown) [Example 229], the EC50 in assay [1] (setting [2]) was 44 nM. Besides, the IC50 in the assay on HIV-1NL4-3 (setting [3]) was 7 nM.
As to `C=C(C)[C@@H]1CC[C@]2(C(=O)NCc3cccc(C(=O)NCc4ccc(OCCCC(=O)O)c(C(=O)O)c4)c3)CC[C@]3(C)C(CCC4[C@@]5(C)CC[C@H](O)C(C)(C)C5CC[C@]43C)C12` (stereo partly shown) [Example 117], the EC50 in assay [1] (setting [2]) is 384 nM. The IC50 with HIV-1NL4-3 (setting [3]) was 76 nM; with HIV-1NL4-3 (setting [5]), under 100 nM.
Turning to `C=C(C)[C@@H]1CC[C@]2(C(=O)NCCc3cccc(C(=O)NCc4ccc(C(=O)N[C@H](CCC(=O)O)C(=O)O)cn4)c3)CC[C@]3(C)C(CCC4[C@@]5(C)CC[C@H](O)C(C)(C)C5CC[C@]43C)C12` (stereo partly shown) [Example 224], the EC50 in assay [1] (setting [2]) was determined as 258 nM. Moreover, the IC50 in the assay with HIV-1NL4-3 (setting [3]) turned out to be 35.5 nM.
Taken in the same sequence, the figures for `C=C(C)[C@@H]1CC[C@]2(C(=O)NCCc3cccc(C(=O)NCc4cccc(C(=O)OC)n4)c3)CC[C@]3(C)C(CCC4[C@@]5(C)CC[C@H](O)C(C)(C)C5CC[C@]43C)C12` (stereo partly shown) [Example 154] were 8 nM and 34 nM.
Take `C=C(C)[C@@H]1CC[C@]2(C(=O)NCCc3cccc(C(=O)NC(C)(C)c4ccccn4)c3)CC[C@]3(C)C(CCC4[C@@]5(C)CC[C@H](O)C(C)(C)C5CC[C@]43C)C12` (stereo partly shown) [Example 159]: the EC50 in assay [1] (setting [2]) is over 10000 nM. Besides, the IC50 in the assay with HIV-1NL4-3 (setting [3]) amounted to 250 nM.
Taken in the same sequence, the figures for `C=C(COC)[C@@H]1CC[C@]2(C(=O)NCCc3cccc(C(=O)NCc4ccc(C(=O)O)cn4)c3)CC[C@]3(C)C(CCC4[C@@]5(C)CC[C@H](O)C(C)(C)C5CC[C@]43C)C12` (stereo partly shown) [Example 266] were 24 nM and 8.3 nM.
`C=C(C)[C@@H]1CC[C@]2(C(=O)NCc3cccc(C(=O)NCCc4ccc(F)c(C(=O)O)c4)c3)CC[C@]3(C)C(CCC4[C@@]5(C)CC[C@H](O)C(C)(C)C5CC[C@]43C)C12` (stereo partly shown) [Example 32]: the EC50 in assay [1] (setting [2]) is 3000 nM. Further, the values for the IC50 in the assay on HIV-1NL4-3 (setting [3]) and in the assay on HIV-1NL4-3 (setting [5]) were 15 nM and under 100 nM, respectively.
As to `C=C(C)[C@@H]1CC[C@]2(C(=O)NCCc3cccc(C(=O)NCc4nc(C(=O)OC)co4)c3)CC[C@]3(C)C(CCC4[C@@]5(C)CC[C@H](O)C(C)(C)C5CC[C@]43C)C12` (stereo partly shown) [Example 152], the EC50 in assay [1] (setting [2]) came to 14 nM. Also, the IC50 in the assay on HIV-1NL4-3 (setting [3]) was 36 nM.
Consider `C=C(C)[C@@H]1CC[C@]2(C(=O)NCCc3cccc(C(=O)Nc4cc(C(=O)O)ccc4N)c3)CC[C@]3(C)C(CCC4[C@@]5(C)CC[C@H](O)C(C)(C)C5CC[C@]43C)C12` (stereo partly shown) [Example 61], for which the EC50 in assay [1] (setting [2]) turned out to be 2300 nM. Further, the IC50 in the assay with HIV-1NL4-3 (setting [3]) is 65 nM; in the assay on HIV-1NL4-3 (setting [5]), under 100 nM.

For the origin of these results see patent US20090275583A1, “ANTIVIRAL COMPOUNDS AND USE THEREOF” (Myriad Genetics, Incorporated, priority 2006, published 2009).
